Measurements as given in patent US8278320B2, “Azabicyclo[2.2.1]heptane compounds as alpha-7 nicotinic acetylcholine receptor ligands” (Bristol-Myers Squibb Company, priority 2009, dated 2012).
Read-outs that look alike come from different tables or passages of the source.

Target: α-7 nicotinic ACh receptor ion channel expressed in mammalian HEK 293 cells (Rattus norvegicus, UniProt Q05941)
Test: Ca2+-sensitive, fluorescence-based FLIPR assay for α-7 nicotinic acetylcholine receptor channel function (agonist activity)
Format: cell-based
Design: expressed in transfected cells
Conditions: Ca2+ flux, HEK-293 cells, Fluo-4
Experimental: I) α7 Nicotinic Acetycholine Receptor Binding. Membranes were prepared for binding using HEK293 cells stably expressing the rat α7 nicotinic acetycholine receptor (rat α7 nAChR). Cells were homogenized at 4° C. in hypotonic lysis buffer consisting of 10 mM Tris (pH 7.4), 5 mM EDTA and protease inhibitors and centrifuged at 32000×g for 20 minutes. The pellet was washed once in membrane wash buffer consisting of 50 mM Tris (pH 7.4), 1 mM EDTA and protease inhibitors and centrifuged at 32000×g for 20 minutes. This pellet was then resuspended in assay buffer consisting 50 mM KH2PO4 (pH 7.4 at 25° C.), 1 mM EDTA, 0.005% Triton-X 100 and 0.1% (v/v) Sigma Protease Inhibitor Cocktail. Aliquots were then frozen in dry ice/ethanol and kept at −80° C. until the day of the assay. II) A Ca^2+-Sensitive, Fluorescence-Based Assay α-7 for Nicotinic Acetylcholine Receptor Channel Function In Mammalian Cells (“FLIPR”). Summary: Lead compounds are evaluated for agonist activity at α-7, α3β4, α4αβ2, and α1β1δ1ε sub-types of nicotinic ACh receptor ion channels expressed in mammalian HEK 293 cells. Agonist potency and efficacy values are determined from kinetic fluorescence Ca^2+ influx measurements made using a 384 well FLIPR (Fluorescence Image Plate Reader). […] In this assay, channel expressing HEK cell lines seeded in 384 well assay plates are loaded with a membrane permeant fluorescent Ca^2+ indicator dye, whose 510 nm green emission signal increases in response to elevation of intracellular Ca^2+ concentration. The basal fluorescence from the cells is monitored in real time, followed by the acute addition of test compounds.
Materials and Methods: Reagents: The acetomethoxy (AM) ester of the Ca^2+ indicator dye Fluo-4 was obtained from InVitrogen, (Carlsbad, Calif.). Acetylcholine and all buffer constituents were purchased from Sigma Chemical Company, St. Louis, Mo. G418 and Minimal Essential Medium were purchased from InVitrogen Life Technologies, Carlsbad, Calif. Fetal bovine serum was purchased from (InVitrogen, Carlsbad, Calif.).
Cell Culture: HEK-293 cells were grown in Minimal Essential Medium containing 10% (v/v) fetal bovine serum at 37° C. in a 5% CO2 incubator. HEK-293 cells stably expressing the ion channels were grown in the same medium with the addition of 500 μg/ml G418.
Ca^2+ flux assays of Ca^2+ channels expressed in HEK-293 cells: HEK-293 cells expressing the ion channels of interest were plated in 384 well, black-walled, clear-bottomed, poly-D-lysine coated plates at a density of ˜20,000 cells/well in 20 μl of Minimal Essential Medium containing 10% (v/v) fetal bovine serum and incubated for 2 days at 29° C. in a 5% CO2 incubator. Prior to assay, cells were loaded with the Fluo-4 AM ester. […] Dye loading was allowed to proceed for 90 minutes at room temperature at which time the dye loading solution was removed and replaced with 40 μl/well of Hanks buffer. Cells loaded with dye were loaded onto a FLIPR384 (Molecular Devices, Sunnyvale, Calif.). Fluo-4 dye was excited using the 488 nm line of an argon laser. Emission was filtered using a 540+/−30 nm bandpass filter. For evaluation of the effects of test compounds using the Ca^2+ flux assay, compounds to be tested were provided in assay ready plates. For nicotinic receptor ion channel expressing cells, the assay was initiated by the addition of 20 μl/well of Hanks buffer containing test compounds. For all assays, data were collected at 1 Hz for 10 seconds (baseline), at which time the compound containing stimulus buffers are added, and further measurements collected at 0.33 Hz for 3 min.
Data Analysis: The statistical robustness of the nicotinic receptor Ca^2+ flux assays is determined from blanks and totals wells. […] The raw fluorescence units data files generated on the FLIPR plate reader are automatically exported and processed by in-house data analysis tools.

[1] = agonist potency class, read-out: FLIPR α7 activity rating (EC50)
[2] = agonist potency, read-out: FLIPR α7-HI (EC50)
[3] = FLIPR α7-HI (EC50, nM), agonist potency
[4] = FLIPR α7 activity rating (EC50, nM), agonist potency class

Chain of α-7 nicotinic ACh receptor ion channel expressed in mammalian HEK 293 cells (Q05941 23-502): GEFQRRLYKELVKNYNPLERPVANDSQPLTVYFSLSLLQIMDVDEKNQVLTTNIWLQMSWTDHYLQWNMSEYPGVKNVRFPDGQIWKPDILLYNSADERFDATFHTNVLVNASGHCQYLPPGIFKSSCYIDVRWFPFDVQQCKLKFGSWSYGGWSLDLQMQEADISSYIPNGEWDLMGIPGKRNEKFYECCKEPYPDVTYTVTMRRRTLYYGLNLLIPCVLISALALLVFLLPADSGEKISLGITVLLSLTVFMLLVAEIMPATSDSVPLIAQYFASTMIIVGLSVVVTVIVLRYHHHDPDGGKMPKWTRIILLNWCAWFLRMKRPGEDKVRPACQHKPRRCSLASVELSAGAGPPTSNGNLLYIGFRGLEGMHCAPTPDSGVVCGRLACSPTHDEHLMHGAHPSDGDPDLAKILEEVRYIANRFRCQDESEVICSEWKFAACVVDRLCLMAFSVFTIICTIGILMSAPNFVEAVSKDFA

EC50 [1] [nM] | EC50 [2] [nM] | SMILES | EC50 [3] [nM] | EC50 [4] [nM]
1000 to 100000 | 411 | COc1ccc2nc(NC3=NC[C@@]4(C[N@]5CC[C@H]4C5)O3)sc2c1 (relative stereo) [Example 1, (3R*,4S*)—N-(6-Methoxybenzo[d]thiazol-2-yl)-4′H-1-azaspiro[bicyclo[2.2.1]heptane-3,5′-oxazol]-2′-amine] |  | 
1000 to 100000 |  | COc1ccc2nc(NC3=NC[C@@]4(C[N@@]5CC[C@@H]4C5)O3)sc2c1 (relative stereo) [Example 2, (3R*,4R*)—N-(6-Methoxybenzo[d]thiazol-2-yl)-4′H-1-azaspiro[bicyclo[2.2.1]heptane-3,5′-oxazol]-2′-amine] |  | 
 |  | Clc1ccc2nc(NC3=NC[C@@]4(C[N@@]5CC[C@@H]4C5)O3)sc2n1 (relative stereo) [Example 3, (3R*,4R*)—N-(5-Chlorothiazolo[5,4-b]pyridin-2-yl)-4′H-1-azaspiro[bicyclo[2.2.1]heptane-3,5′-oxazol]-2′-amine] | 91 | 100 to 1000
 |  | Fc1ccc2nc(NC3=NC[C@@]4(C[N@@]5CC[C@@H]4C5)O3)sc2n1 (relative stereo) [Example 4, (3R*,4R*)—N-(5-Fluorothiazolo[5,4-b]pyridin-2-yl)-4′H-1-azaspiro[bicyclo[2.2.1]heptane-3,5′-oxazol]-2′-amine] |  | 100 to 1000
 |  | COc1ccc2nc(NC3=NC[C@@]4(C[N@@]5CC[C@@H]4C5)O3)sc2n1 (relative stereo) [Example 5, (3R*,4R*)—N-(5-Methoxythiazolo[5,4-b]pyridin-2-yl)-4′H-1-azaspiro[bicyclo[2.2.1]heptane-3,5′-oxazol]-2′-amine] | 311 | 1000 to 100000
 |  | Clc1cnc(NC2=NC[C@@]3(C[N@@]4CC[C@@H]3C4)O2)c(Cl)c1 (relative stereo) [Example 6, (3R*,4R*)—N-(3,5-Dichloropyridin-2-yl)-4′H-1-azaspiro[bicyclo[2.2.1]heptane-3,5′-oxazol]-2′-amine] | 155 | 100 to 1000
 |  | c1ccc2cc(NC3=NC[C@@]4(C[N@@]5CC[C@@H]4C5)O3)ncc2c1 (relative stereo) [Example 7, (3R*,4R*)—N-(Isoquinolin-3-yl)-4′H-1-azaspiro[bicyclo[2.2.1]heptane-3,5′-oxazol]-2′-amine] |  | < 100
 |  | c1cnc2sc(NC3=NC[C@@]4(C[N@@]5CC[C@@H]4C5)O3)nc2c1 (relative stereo) [Example 8, (3R*,4R*)—N-(Thiazolo[5,4-b]pyridin-2-yl)-4′H-1-azaspiro[bicyclo[2.2.1]heptane-3,5′-oxazol]-2′-amine] |  | 100 to 1000
1000 to 100000 | 487 | Cc1cccc(-c2cnc(NC3=NC[C@@]4(C[N@@]5CC[C@@H]4C5)O3)nc2)c1 (relative stereo) [Example 9, (3R*,4R*)—N-(5-m-Tolylpyrimidin-2-yl)-4′H-1-azaspiro[bicyclo[2.2.1]heptane-3,5′-oxazol]-2′-amine] |  | 
 |  | COc1ccc(NC2=NC[C@@]3(C[N@@]4CC[C@@H]3C4)O2)nc1 (relative stereo) [Example 10, (3R*,4R*)—N-(5-Methoxypyridin-2-yl)-4′H-1-azaspiro[bicyclo[2.2.1]heptane-3,5′-oxazol]-2′-amine] |  | 100 to 1000
 |  | c1ccc2cc(NC3=NC[C@@]4(C[N@]5CC[C@H]4C5)O3)ncc2c1 (relative stereo) [Example 16, (3R*,4S*)—N-(Isoquinolin-3-yl)-4′H-1-azaspiro[bicyclo[2.2.1]heptane-3,5′-oxazol]-2′-amine] | 33 | < 100
 |  | c1cnc2sc(NC3=NC[C@@]4(C[N@]5CC[C@H]4C5)O3)nc2c1 (relative stereo) [Example 17, (3R*,4S*)—N-(Thiazolo[5,4-b]pyridin-2-yl)-4′H-1-azaspiro[bicyclo[2.2.1]heptane-3,5′-oxazol]-2′-amine] |  | < 100
 |  | c1ccc2cc(NC3=NCC4(CN5CCC4C5)O3)ncc2c1 (single isomer, unassigned) [Example 7a] |  | < 100
 |  | c1ccc2cc(NC3=NCC4(CN5CCC4C5)O3)ncc2c1 (single isomer, unassigned) [Example 7b] |  | < 100
